Source: patent US20130184272A1, “DIABETES THERAPEUTIC AGENT” (TAKEDA PHARMACEUTICAL COMPANY LIMITED, priority 2010, published 2013)
“And” between values parts separate entries of the source, which are not always exact repeats. Equal entries are not always repeated.

Columns and labels:
[1] = tested on: C/EBPβ; assay: Adipocyte-related gene expression level: C/EBPβ; assay type: cell-based
Procedure: (§1) In the same manner as in Example 10, the cells were cultured, and total RNA was extracted using Rneasy96 kit (Qiagen) from the cell immediately before and 6 days after addition of […] of the compound of Reference Example 1. cDNA was prepared from the total RNA using TaqMan reverse transcription reagent (Applied Biosystems), quantitative PCR was performed by ABI PRISM7000 or 7000 using TaqMan Universal PCR master mix (Applied Biosystems) and commercially available primers, and the expression level of each gene was determined. The commercially available primers used were as follows. • C/EBPα (Mm00514283_s1, TaqMan Gene Expression Assays, Applied Biosystems) • C/EBPβ (Mm00843434_s1, TaqMan Gene Expression Assays, Applied Biosystems) • KLF15 (Mm00517792_m1, TaqMan Gene Expression Assays, Applied Biosystems) • PPARγ (Mm00440945_m1, TaqMan Gene Expression Assays, Applied Biosystems)
(§2) The expression level was amended by the amount of 36B4 (Takeda Pharmaceutical Company Limited) in the same manner as in Example 3, and the relative values to the value immediately before addition of each gene compound as 1 are shown in Table 16. The data in Table 16 show mean±standard deviation at n=3-4 (n is the number of samples).

[2] = tested on: PPARγ; assay: Adipocyte-related gene expression level: PPARγ; assay type: cell-based
Procedure: as §1, §2

[3] = tested on: C/EBPα; assay: Adipocyte-related gene expression level: C/EBPα; assay type: cell-based
Procedure: as §1, §2

[4] = tested on: C2C12 cells; assay: Action on muscle cell differentiation suppressed by TNF-α (creatine kinase activity); assay type: cell-based, Mouse; settings: for creatine kinase activity (mIU/μg): TNF-a 30 ng/mL, 3 days
Procedure: • (1) In the same manner as in Example 1, C2C12 cells were cultured in a growth medium to not less than 90% confluence. • (2) The medium was exchanged with a differentiation medium, the compound of Reference Example 1 together with TNF-α were added, and the cells were cultured for 3 days. • (3) The cells were washed with PBS, 0.5% NP-40 solution was added, and the cells were lysed by freeze-thawing. The cell extract was centrifuged and the creatine kinase activity in the supernatant was measured as an index of muscle differentiation. The creatine kinase activity was measured using CPKII Test Wako (Wako Pure Chemical Industries, Ltd.) according to the manual of the kit.
The data in Table 9 show mean±standard deviation at n=3 (n is the number of samples).

[5] = tested on: KLF15; assay: Adipocyte-related gene expression level: KLF15; assay type: cell-based
Procedure: as §1, §2

[6] = tested on: Male FisherF344 rats fed with a high-fat diet; assay: Antiobesity action and dyslipidemia improving effect in high-fat diet-loaded rat; assay type: in vivo
Procedure: Male FisherF344 rats (CLEA Japan, Inc.) fed with a high-fat diet (45 kcal % fat, D12451, research diet) for 38 weeks from 5 weeks of age were used. They were bred with a powder high-fat diet (D12451M) for 4 weeks for acclimation, measured for body weight, body composition, amount of ingestion and plasma component, and divided into 3 groups (6 per group) without difference between them. The plasma components (total cholesterol, triglyceride, glucose concentration) were measured by HITACHI automatic analyzer 7070. As the body composition, total fat mass, body fat percentage, lean body mass of lower leg, and visceral fat mass were measured by X-ray CT apparatus (LCT-100A, LaTheta). The compound of Reference Example 1 was suspended in aqueous methylcellulose solution and orally administered repeatedly to 2 groups of the rats divided into 3 groups at 0.03 mg/kg or 0.1 mg/kg once a day for 14 days. A 0.5% aqueous methylcellulose solution was orally administered similarly to the remaining one group and used as a control group. On the administration completion day, the blood was drawn again from the tail vein, and plasma levels of total cholesterol, triglyceride, glucose, insulin and leptin, and body weight and body composition (total fat mass, body fat percentage, lean body mass of lower leg, visceral fat mass) were measured. The amount of ingestion was calculated from the amount of the feed given and the amount left, and the total of the test period was calculated. The numerical values in Table 11 and Table 12 show mean±standard deviation at n=5-6 (n is the number of rats).

[7] = 10 μm [sic] of compound, 6 days after addition, value immediately before addition = 1
[8] = 0.03 mg/kg oral once a day, 14 days
[9] = 0.1 mg/kg oral once a day, 14 days

With Cc1ncccc1Oc1sc(C(N)=O)c2c1-c1c(cnn1C)CC2 [Ref. Ex. 1, 1-methyl-8-[(2-methylpyridin-3-yl)oxy]-4,5-dihydro-1H-thieno[3,4-g]indazole-6-carboxamide] the “C/EBPβ expression level (amended by 36B4)” value [1, 7] was 1.3 ± 0.5, the “expression level of C/EBPβ (in words)” value ([1]; C3H10T1/2 cell) was “decreased” and the “PPARγ expression level (amended by 36B4)” value [2, 7] was 4.5 ± 0.9. For the same compound, the “expression level of PPARγ (in words)” value ([2]; C3H10T1/2 cell) was “decreased”, the “C/EBPα expression level (amended by 36B4)” value [3, 7] was 1.6 ± 0.5 and the “expression level of C/EBPα (in words)” value ([3]; C3H10T1/2 cell) was “decreased”. The “creatine kinase activity decreased by TNF-α (in words)” value [4] was “recovered”, the “creatine kinase activity (mIU/μg)” value ([4]; compound 0 nM as printed) was 0.12 mIU/μg and 0.15 mIU/μg and the “creatine kinase activity (mIU/μg)” value ([4]; compound 1 nM) was 0.25 mIU/μg. For the same compound, the “creatine kinase activity (mIU/μg)” value ([4]; compound 3 nM) was 0.39 mIU/μg, the “KLF15 expression level (amended by 36B4)” value [5, 7] was 1.4 ± 0.4 and the “expression level of KLF15 (in words)” value ([5]; C3H10T1/2 cell) was “decreased”. The “amount of ingestion (g/2 weeks)” value [6, 8] was 165.8 ± 13.9 g/2 weeks, the “body fat percentage, change rate (%)” value [6, 8] was 3.5 ± 1.5 % and the “body weight” value [6, 8] was 460.8 ± 15.3 g. The “body weight, amount of change” value [6, 8] was -3.8 ± 7.5 g, the “lean body mass (g) of lower leg” value [6, 8] was 82.9 ± 5.2 g and the “lean body mass of lower leg, amount of change” value [6, 8] was 8.4 ± 1.7 g. For the same compound, the “plasma glucose” value [6, 8] was 142.3 ± 5.6 mg/dL, the “plasma insulin” value [6, 8] was 5.2 ± 1.0 ng/mL and the “plasma leptin” value [6, 8] was 1.2 ± 0.4 ng/dL. For the same compound, the “plasma total cholesterol” value [6, 8] was 102.3 ± 12.6 mg/dL, the “plasma triglyceride” value [6, 8] was 242.4 ± 92.5 mg/dL and the “total fat mass” value [6, 8] was 138.0 ± 16.6 g. The “total fat mass, amount of change” value [6, 8] was -17.5 ± 8.8 g, the “visceral fat mass” value [6, 8] was 53.8 ± 6.1 g and the “visceral fat mass, amount of change” value [6, 8] was -4.3 ± 3.4 g. For the same compound, the “amount of ingestion (g/2 weeks)” value [6, 9] was 127.9 ± 21.2 g/2 weeks, the “body fat percentage (%)” value [6, 9] was 26.9 ± 2.6 % and the “body fat percentage, change rate (%)” value [6, 9] was −7.1 ± 1.1 %. For the same compound, the “body weight” value [6, 9] was 446.5 ± 38.1 g, the “body weight, amount of change” value [6, 9] was -19.5 ± 11.0 g and the “lean body mass (g) of lower leg” value [6, 9] was 84.5 ± 6.9 g. For the same compound, the “lean body mass of lower leg, amount of change” value [6, 9] was 9.8 ± 4.2 g, the “plasma glucose” value [6, 9] was 146.3 ± 5.9 mg/dL and the “plasma insulin” value [6, 9] was 2.8 ± 1.1 ng/mL. The “plasma leptin” value [6, 9] was 0.6 ± 0.4 ng/dL, the “plasma total cholesterol” value [6, 9] was 77.3 ± 9.6 mg/dL and the “plasma triglyceride” value [6, 9] was 100.1 ± 43.1 mg/dL. For the same compound, the “total fat mass” value [6, 9] was 120.5 ± 18.2 g, the “total fat mass, amount of change” value [6, 9] was -38.1 ± 6.7 g and the “visceral fat mass” value [6, 9] was 47.2 ± 9.0 g. For the same compound, the “visceral fat mass, amount of change” value [6, 9] was -11.0 ± 2.9 g and the “body weight (in words)” value ([6]; administration at 0.1 mg/kg) was “clear body weight decreasing action”.
